Where two headings read alike, the source gives them in different places.
Assays:
[1] = test system: RASMC proliferation stimulated with PDGF-BB
Description: (§1) For this test rat vascular smooth muscle cells (RASMC) primary cultures, obtained from adult male Wistar Rats, were used according to well known procedures (Facchiano et al., 2000, J. Cell Sci., 113(16), 2855-63).
(§2) Proliferation assay was performed, following standard procedures (Facchiano, et al., 2000, Cell Sci., 113(16), 2855-63), on 6-well plates (1×10^5 cells/plate) allowed to grow for 24 hours in DMEM supplemented with 10% Fetal Calf Serum (FCS) at 37° C. in 5% CO2. Medium was replaced with starvation medium containing either DMEM-0.1% BSA for 24 hours. Subsequently the starvation medium was replaced with fresh medium containing either 0.1% BSA alone or 0.1% BSA with PDGF-BB in the presence or absence of the RGD-analog. Every assay was carried out at different time intervals and cells were harvested and counted with hemacytometer.

[2] = test system: RASMC migration toward PDGF-BB; experiment: Migration assay in modified Boyden chambers toward PDGF-BB; type: cell-based, rat; details: FIG. 2; PDGF-BB 10 ng/ml as chemoattractant
Description: Rat vascular smooth muscle cells (RASMC) were placed in the upper chamber of the Boyden apparatus. […] Cell migrated on the bottom face of the filters were counted at 400× magnification. Fifteen fields were counted for each filter and the average number of cells/field was calculated. Experiments were performed at least 4 times in duplicate.

[3] = test system: RASMC proliferation stimulated with PDGF-BB; experiment: Proliferation assay (PDGF-BB stimulated RASMC, cell counting); details: FIG. 3
Description: as §1, §2

SMILES	toxic effects on cells [1]	inhibition of RASMC migration toward PDGF-BB gradient [2]	anti-proliferative effect (inhibition of RASMC proliferation) ([3]; 100 ng/ml, stimulated for 48 hours with PDGF-BB (10 ng/ml))	toxic effects on cells ([3]; added to cells in the absence of PDGF-BB)
NC(N)=NCCC[C@H](N)C(=O)NCC(=O)N[C@@H](CC(=O)O)C(=O)N[C@@H](CO)C(=O)O [RGDS]	do not show toxic effects	–	–	–
N=C(N)NCCC[C@H](NC(=O)[C@@H](Cc1ccccc1)NC(=O)[C@H](CCCNC(=N)N)NC(=O)CC(=O)N[C@@H](CC(=O)O)C(N)=O)C(N)=O [non-peptidic RGD-analog, H2N—RfRmD—NH2]	–	in a dose-dependent manner	marked anti-proliferative effect	do not show toxic effects

— patent US6627769B2, “RGD-analog non-peptidic molecules having anti-adhesive, anti-migration and anti-proliferative effects” (Provincia Italiana Della Congregzaione dei Figli …, priority 2001, dated 2003)
